According to patent publication US7452906B2, “Pyridine derivatives as Raf kinase inhibitors” (SmithKline Beecham P.L.C., priority 2001, dated 2008):

Columns and labels:
human melanoma SKMEL3 = test: Methylene Blue Growth Inhibition Assay (Assay 2), SKMEL3; type: cell-based; conditions: SK-MEL3, 72 h, B-Raf V599E, Ras wt, 3 days
Protocol: (§1) Methylene Blue Growth Inhibition Assay (Assay 2)
(§2) Normal human foreskin fibroblasts (HFF), human melanoma (A375P, SKMEL2, SKMEL3) colon carcinoma (Colo 205) were cultured in the following growth media: A375P, Colo 205, Roswell Park Memorial Institute (RPMI) 1640 (Life Technologies 22400-089) containing 10% fetal bovine serum (FBS); HFF, Dulbecco's modified Eagle Medium (DMEM) (Life Technologies 12320-032) containing 10% FBS; SKMEL2 and SKMEL3, Minimum Essential Medium (MEM, Life Technologies 11095-080) containing 1× non-essential amino acids (Life Technologies 11140-050) and 10% FBS. Cells were harvested using 0.25% trypsin/1 mM, EDTA, counted using a haemocytometer, and plated in 100 microliters of the appropriate media, at the following densities, in a 96-well tissue culture plate Falcon 3075): HFF and A375P, 5,000 cells/well; all other cell lines, 10,000 cells/well. The next day, compounds were diluted in RPMI containing 100 micrograms/ml gentamicin, at twice the final required concentration, from 10 mM stock solutions in dimethyl sulphoxide (DMSO). One hundred microliters per well of these dilutions were added to the 100 microliters of media currently on the cell plates. RPMI containing 0.6% DMSO was added to control wells. […]. The final concentration of DMSO in all wells was 0.3%. Cells were incubated at 37° C., 5% CO2 for 3 days. Medium was removed by aspiration. Cell biomass was estimated by staining cells with 90 μl per well methylene blue (Sigma M9140, 0.5% in 50:50 ethanol:water) and incubation at room temperature for at least 30 minutes. Stain was removed, the plates rinsed by immersion in deionized water and air-dried. To release stain from the cells 100 μl of solubilization solution was added (1% N-lauroyl sarcosine, sodium salt, Sigma L5125, in phosphate-buffered saline solution (PBS)), and plates were incubated at room temperature for 30 minutes. Optical density at 620 nm was measured on a microplate reader. Percent inhibition of cell growth was calculated relative to vehicle treated control wells. […]

[1] = tested on: human colon carcinoma (Colo 201) cells; test: XTT 72 hr Growth Inhibition (Assay 3), Colo201; type: cell-based; conditions: colorectal cancer, B-Raf and Ras status ND
Protocol: (§3) XTT 72 hr Growth Inhibition Protocol for Mammalian Cultured Cells (Assay 3)
(§4) Human diploid foreskin fibroblasts (HFF) or human colon carcinoma (Colo 201) cells were grown in Dulbecco's modified Eagle's medium (DMEM) (Invitrogen/Life Technologies) containing 10% fetal bovine serum (FBS) and the antibiotics penicillin (100 Units/ml) and streotomycin (100 micrograms/ml) (Invitrogen/Life Technologies). Growth was at 37° C. in humidified 5% CO2 incubators in 75 cm^2 plastic flasks. Cells were harvested using 0.25% trypsin/1 mM ethylenediaminetetraacetic acid (EDTA), resuspended in growth medium, and counted using a hemocytometer. Flat-bottomed 96-well plates were seeded with 2×10^3 cells/well in a volume of 200 ul from trypsinized exponentially growing cultures. To “blank” wells, growth medium was added with no additions. Cells were incubated overnight to permit attachment.
(§5) Next day, medium from wells that contained cells was replaced with 180 microliters of fresh medium. Appropriate dilutions of test compounds were added to the wells from stock soloutions of compound dissolved in dimethyl sulfoxide DMSO); final DMSO concentration in all wells was 0.2%. Cells plus compound were incubated for an additional 72 hr at 37° C. under normal growth conditions. Cells were then assayed for viability using standard XTT/PMS*. Fifty microliters of XTT/PMS solution was added to each well and plates were incubated for 90 minutes at 37° C. Absorbance at 450 nm was then determined using a 96-well UV plate reader (Molecular Devices). Under these conditions, absorbance of untreated control cells at 450 nm was at least 1.0 optical density unit/ml. […] It was equal to 100×(A450 test well/A450 untreated control well), the A450s being averages of triplicate determinations. […]

human melanoma SKMEL2 = test: Methylene Blue Growth Inhibition Assay (Assay 2), SKMEL2; type: cell-based; conditions: SK-MEL-2, 72 h, B-Raf wt, [Q61R]N-Ras, 3 days
Protocol: as §1, §2

[2] = tested on: Human diploid foreskin fibroblasts (HFF); test: XTT 72 hr Growth Inhibition (Assay 3), HFF; type: cell-based; conditions: Fibroblast, normal, B-Raf wt, Ras wt
Protocol: as §3, §4, §5

[3] = tested on: colon carcinoma (Colo 205); test: Methylene Blue Growth Inhibition Assay (Assay 2), Colo205; type: cell-based; conditions: Homo sapiens, COLO 205, 72 h, colorectal cancer, B-Raf V599E, Ras wt, 3 days
Protocol: as §1, §2

human melanoma A375P = test: Methylene Blue Growth Inhibition Assay (Assay 2), A375P; type: cell-based; conditions: 72 h, B-Raf V599E, Ras wt, 3 days
Protocol: as §1, §2

[4] = target: T1, human recombinant B-Raf protein (Homo sapiens, UniProt P15056); test: Raf Kinase Assay (Assay 1): incorporation of radiolabelled phosphate into GST-kdMEK; type: biochemical; conditions: head: Assay 1
T1 construct: made in house; host or cells: Sf9 insect cells (baculovirus)
T1 sequence (P15056 whole entry): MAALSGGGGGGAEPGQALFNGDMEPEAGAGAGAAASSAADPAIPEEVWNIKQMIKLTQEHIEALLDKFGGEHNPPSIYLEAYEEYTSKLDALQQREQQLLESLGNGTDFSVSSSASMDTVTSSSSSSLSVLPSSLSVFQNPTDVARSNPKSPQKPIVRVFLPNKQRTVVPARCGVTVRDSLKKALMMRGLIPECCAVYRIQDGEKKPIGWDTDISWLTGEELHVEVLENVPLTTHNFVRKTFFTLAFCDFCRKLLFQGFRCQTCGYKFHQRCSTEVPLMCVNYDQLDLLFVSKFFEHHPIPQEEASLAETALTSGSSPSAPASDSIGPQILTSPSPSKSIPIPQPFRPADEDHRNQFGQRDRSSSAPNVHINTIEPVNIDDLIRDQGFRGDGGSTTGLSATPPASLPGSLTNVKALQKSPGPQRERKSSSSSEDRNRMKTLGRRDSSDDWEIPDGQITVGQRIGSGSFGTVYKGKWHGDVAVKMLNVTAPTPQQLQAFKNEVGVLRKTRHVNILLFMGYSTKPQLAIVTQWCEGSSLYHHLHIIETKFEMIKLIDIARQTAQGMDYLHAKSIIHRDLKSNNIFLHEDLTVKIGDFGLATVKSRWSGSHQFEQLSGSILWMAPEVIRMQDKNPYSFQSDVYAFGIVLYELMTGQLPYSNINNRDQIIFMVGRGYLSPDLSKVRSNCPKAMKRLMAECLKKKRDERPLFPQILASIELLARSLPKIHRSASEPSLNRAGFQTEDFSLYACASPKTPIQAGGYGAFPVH
Protocol: Activity of human recombinant B-Raf protein was assessed in vitro by assay of the incorporation of radiolabelled phosphate to recombinant MAP kinase kinase (MEK), a known physiologic substrate of B-Raf. Catalytically active human recombinant B-Raf protein was obtained by purification from Sf9 insect cells infected with a human B-Raf recombinant baculovirus expression vector.
Method: Standard assay conditions of B-Raf catalytic activity utilised 3 ug of GST-kdMEK, 10 uM ATP and 2uCi ^33P-ATP, 50 mM MOPS, 0.1 mM EDTA, 0.1M sucrose, 10 mM MgCl2 plus 0.1% dimethylsulphoxide (containing compound where appropriate) in a total reaction volume of 30 ul. Reactions were incubated at 25° C. for 90 minutes and reactions terminated by addition of ethylenediaminetetraacetic acid (EDTA) to a final concentration of 50 uM. 10 ul of reaction was spotted to P81 phosphocellulose paper and air dried. Following four washes in ice cold 10% trichloroacetic acid, 0.5% phosphoric acid, papers were air dried prior to addition of liquid scintillant and measurement of radioactvity in a scintillation counter.

| Structure (SMILES) | IC50 (human melanoma SKMEL3) [nM] | IC50 [1] [nM] | IC50 (human melanoma SKMEL2) [nM] | IC50 [2] [nM] | IC50 [3] [nM] | IC50 (human melanoma A375P) [nM] | Kd [4] [nM] |
| --- | --- | --- | --- | --- | --- | --- | --- |
| ON=C1CCc2cc(-c3cc(CN4CCOCC4)oc3-c3ccncc3)ccc21 [Example 1, 5-(5-Morpholin-4-ylmethyl-2-pyridin-4-yl-furan-3-yl)-indan-1-one oxime] | 5300 | 490 | 4200 | > 30000 | 750 | 1300 |  |
| O=S1(=O)CCN(Cc2cc(-c3ccc4c(c3)CCC4=NO)c(-c3ccncc3)o2)CC1 [Example 5, 5-[5-(1,1-Dioxo-1-thiomorpholin-4-ylmethyl)-2-pyridin-4-yl-furan-3-yl]-indan-1-one oxime] | 5400 | 890 | 2500 | > 30000 | 230 | 600 | 3.6 |
| ON=C1CCc2cc(-c3cc(C4CCNCC4)oc3-c3ccncc3)ccc21 [Example 31, 5-(5-Piperidin-4-yl-2-pyridin-4-yl-furan-3-yl)-indan-1-one oxime] | 650 | 10 | 170 | 21000 | 10 | 43 |  |
